Paper PMC7023430, “4-Aminobenzoic Acid Derivatives: Converting Folate Precursor to Antimicrobial and Cytotoxic Agents” (Biomolecules, 2019)
Converted amounts (≈) assume the structure as drawn. Read-outs that look alike come from different tables or passages of the source.

How the values were obtained:
[1] = tested on: Staphylococcus aureus ATCC 29213, CCM 4223; assay: Antibacterial microdilution broth method, S. aureus; type: cell-based
[2] = tested on: Staphylococcus epidermidis H 6966/08; assay: Antibacterial microdilution broth method, S. epidermidis; type: cell-based; details: Staphylococcus epidermidis, H6966/08, S. epidermidis
[3] = tested on: Enterococcus faecalis ATCC 29212, CCM 4224; assay: Antibacterial microdilution broth method, E. faecalis; type: cell-based; details: Enterococcus faecalis
[4] = tested on: Escherichia coli ATCC 25922, CCM 3954; assay: Antibacterial microdilution broth method, E. coli; type: cell-based; details: Escherichia coli
[5] = tested on: Pseudomonas aeruginosa ATCC 27853, CCM 3955; assay: Antibacterial microdilution broth method, P. aeruginosa; type: cell-based; details: Pseudomonas aeruginosa
[6] = tested on: Mycobacterium tuberculosis H37Rv (331/88); assay: Antimycobacterial micromethod in Šula's medium, M. tuberculosis; type: cell-based
[7] = tested on: Mycobacterium avium 330/88; assay: Antimycobacterial micromethod in Šula's medium, M. avium; type: cell-based
[8] = tested on: Mycobacterium kansasii 235/80; assay: Antimycobacterial micromethod in Šula's medium, M. kansasii 235/80; type: cell-based
[9] = tested on: M. kansasii 6509/96 (clinical isolate); assay: Antimycobacterial micromethod in Šula's medium, M. kansasii 6509/96; type: cell-based; details: Mycobacterium kansasii
Candida krusei E28 = assay: Antifungal microdilution broth method, C. krusei; type: cell-based; details: Pichia kudriavzevii
How it was run: (§1)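 Compounds were taken up in DMSO, then serially diluted twofold into MOPS-buffered (pH 7.0) RPMI-1640 containing L-glutamine and 2% glucose. Fungi were tested by microdilution following modified EUCAST guidance, and MICs were assessed by eye.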

Candida glabrata 20/I = assay: Antifungal microdilution broth method, C. glabrata; type: cell-based; details: Nakaseomyces glabratus
How it was run: as §1

Trichosporon asahii 1188 = assay: Antifungal microdilution broth method, T. asahii; type: cell-based
How it was run: as §1

[10] = tested on: Aspergillus fumigatus 231; assay: Antifungal microdilution broth method, A. fumigatus; type: cell-based
How it was run: as §1

[11] = tested on: Lichtheimia corymbifera 272; assay: Antifungal microdilution broth method, L. corymbifera; type: cell-based
How it was run: as §1

[12] = tested on: Trichophyton interdigitale 445; assay: Antifungal microdilution broth method, T. interdigitale; type: cell-based
How it was run: as §1

[13] = tested on: Klebsiella pneumoniae D 11750/08; assay: Antibacterial microdilution broth method, K. pneumoniae; details: K. pneumoniae D 11750/08; for MIC KP 24 h: 24 h incubation; for MIC KP 48 h: 48 h incubation
[14] = 24 h incubation, read-out: MIC SA 24 h
[15] = 48 h incubation, read-out: MIC SA 48 h
[16] = 24 h incubation, read-out: MIC SE 24 h
[17] = 48 h incubation, read-out: MIC SE 48 h
[18] = 24 h incubation, read-out: MIC EF 24 h
[19] = 48 h incubation, read-out: MIC EF 48 h
[20] = 24 h incubation, read-out: MIC EC 24 h
[21] = 48 h incubation, read-out: MIC EC 48 h
[22] = P. aeruginosa, 24 h incubation, read-out: MIC PA 24 h
[23] = P. aeruginosa, 48 h incubation, read-out: MIC PA 48 h
[24] = 336 h, 14 days incubation at 37 °C, read-out: MIC Mtb. 331/88 14 d
[25] = 504 h, 21 days incubation at 37 °C, read-out: MIC Mtb. 331/88 21 d
[26] = 330/88, 336 h, 14 days incubation at 37 °C, read-out: MIC M. avium 330/88 14 d
[27] = 330/88, 504 h, 21 days incubation at 37 °C, read-out: MIC M. avium 330/88 21 d
[28] = 235/80, 168 h, 7 days incubation at 37 °C, read-out: MIC M. kansasii 235/80 7 d
[29] = 235/80, 336 h, 14 days incubation at 37 °C, read-out: MIC M. kansasii 235/80 14 d
[30] = 235/80, 504 h, 21 days incubation at 37 °C, read-out: MIC M. kansasii 235/80 21 d
[31] = 168 h, 7 days incubation at 37 °C, read-out: MIC M. kansasii 6509/96 7 d
[32] = 336 h, 14 days incubation at 37 °C, read-out: MIC M. kansasii 6509/96 14 d
[33] = 504 h, 21 days incubation at 37 °C, read-out: MIC M. kansasii 6509/96 21 d

SMILES	MIC [1, 14] [µM]	MIC [1, 15] [µM]	MIC [2, 16] [µM]	MIC [2, 17] [µM]	MIC [3, 18] [µM]	MIC [3, 19] [µM]	MIC [4, 20] [µM]	MIC [4, 21] [µM]	MIC [5, 22] [µM]	MIC [5, 23] [µM]	MIC [6, 24] [µM]	MIC [6, 25] [µM]	MIC [7, 26] [µM]	MIC [7, 27] [µM]	MIC [8, 28] [µM]	MIC [8, 29] [µM]	MIC [8, 30] [µM]	MIC [9, 31] [µM]	MIC [9, 32] [µM]	MIC [9, 33] [µM]	also measured
O=C(O)c1ccc(N=Cc2ccc([N+](=O)[O-])o2)cc1 [1r, 4-{[(5-Nitrofuran-2-yl)methylene]amino}benzoic acid]	62.5 (≈ 16.3 µg/mL)	62.5 (≈ 16.3 µg/mL)	125 (≈ 32.5 µg/mL)	125 (≈ 32.5 µg/mL)	> 500	> 500	> 500	> 500	500 (≈ 130 µg/mL)	500 (≈ 130 µg/mL)	62.5 (≈ 16.3 µg/mL)	125 (≈ 32.5 µg/mL)	250 (≈ 65.1 µg/mL)	500 (≈ 130 µg/mL)	62.5 (≈ 16.3 µg/mL)	125 (≈ 32.5 µg/mL)	250 (≈ 65.1 µg/mL)	125 (≈ 32.5 µg/mL)	125 (≈ 32.5 µg/mL)	250 (≈ 65.1 µg/mL)	MIC ([5]; time not stated, read-out: MIC, P. aeruginosa): 500 µM (≈ 130 µg/mL); MIC (Candida krusei E28; 24 h, read-out: MIC CK 24 h): 62.5 µM (≈ 16.3 µg/mL); MIC (Candida krusei E28; 48 h, read-out: MIC CK 48 h): 62.5 µM (≈ 16.3 µg/mL); MIC (Candida glabrata 20/I; 24 h, read-out: MIC CG 24 h): 250 µM (≈ 65.1 µg/mL); MIC (Candida glabrata 20/I; 48 h, read-out: MIC CG 48 h): 250 µM (≈ 65.1 µg/mL); MIC (Trichosporon asahii 1188; 24 h, read-out: MIC TA 24 h): 500 µM (≈ 130 µg/mL); MIC (Trichosporon asahii 1188; 48 h, read-out: MIC TA 48 h): 500 µM (≈ 130 µg/mL); MIC ([10]; 24 h, read-out: MIC AF 24 h): > 500 µM; MIC ([10]; 48 h, read-out: MIC AF 48 h): > 500 µM; MIC ([11]; 24 h, read-out: MIC LC 24 h): > 500 µM; MIC ([11]; 48 h, read-out: MIC LC 48 h): > 500 µM; MIC ([12]; 72 h, read-out: MIC TI 72 h): 250 µM (≈ 65.1 µg/mL); MIC ([12]; 120 h, read-out: MIC TI 120 h): 250 µM (≈ 65.1 µg/mL); MIC KP 24 h [13]: 500 µM (≈ 130 µg/mL); MIC KP 48 h [13]: 500 µM (≈ 130 µg/mL)
O=C(O)c1ccc(NCc2ccccc2O)cc1 [1u, 4-[(2-Hydroxybenzyl)amino]benzoic acid]	> 500	> 500	> 500	> 500	> 500	> 500	> 500	> 500	> 500	> 500	1000 (≈ 243 µg/mL)	1000 (≈ 243 µg/mL)	> 1000	> 1000	1000 (≈ 243 µg/mL)	1000 (≈ 243 µg/mL)	1000 (≈ 243 µg/mL)	1000 (≈ 243 µg/mL)	1000 (≈ 243 µg/mL)	1000 (≈ 243 µg/mL)	MIC (Candida krusei E28; 24 h, read-out: MIC CK 24 h): > 500 µM; MIC (Candida krusei E28; 48 h, read-out: MIC CK 48 h): > 500 µM; MIC (Candida glabrata 20/I; 24 h, read-out: MIC CG 24 h): > 500 µM; MIC (Candida glabrata 20/I; 48 h, read-out: MIC CG 48 h): > 500 µM; MIC (Trichosporon asahii 1188; 24 h, read-out: MIC TA 24 h): > 500 µM; MIC (Trichosporon asahii 1188; 48 h, read-out: MIC TA 48 h): > 500 µM; MIC ([10]; 24 h, read-out: MIC AF 24 h): > 500 µM; MIC ([10]; 48 h, read-out: MIC AF 48 h): > 500 µM; MIC ([11]; 24 h, read-out: MIC LC 24 h): > 500 µM; MIC ([11]; 48 h, read-out: MIC LC 48 h): > 500 µM; MIC ([12]; 72 h, read-out: MIC TI 72 h): > 500 µM; MIC ([12]; 120 h, read-out: MIC TI 120 h): > 500 µM; MIC KP 24 h [13]: >500 µM; MIC KP 48 h [13]: >500 µM
